Results taken from PMC9062515, “Identification of the Biosynthetic Pathway of Glycine Betaine That Is Responsible for Salinity Tolerance in Halophilic Thioalkalivibrio versutus D301” (Frontiers in Microbiology, 2022).

Key:
[1] = molecular target: T1, TvSDMT (Thioalkalivibrio versutus, UniProt A0A0G3G397); assay: methyltransferase assay, HPLC of product; type: biochemical; details: 10 mM SAM, MgCl2, pH 7.5, 37 °C
T1 construct: gene TVD_00880; His-tagged, pET-28a(+), E. coli BL21(DE3), Ni Sepharose; calculated 32 kDa
T1 sequence (A0A0G3G397 1-282): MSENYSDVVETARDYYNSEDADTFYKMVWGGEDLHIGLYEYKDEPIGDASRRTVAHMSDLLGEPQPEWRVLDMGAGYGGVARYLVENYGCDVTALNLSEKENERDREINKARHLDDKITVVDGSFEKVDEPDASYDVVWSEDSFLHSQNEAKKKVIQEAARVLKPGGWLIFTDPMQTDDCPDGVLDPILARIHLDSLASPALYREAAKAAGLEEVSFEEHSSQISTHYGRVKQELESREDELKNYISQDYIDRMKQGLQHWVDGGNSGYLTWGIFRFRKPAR

[2] = molecular target: T2, TvGMT (Thioalkalivibrio versutus, UniProt A0A0G3G560); assay: methyltransferase assay, HPLC of product; type: biochemical; details: 250 mM glycine, 10 mM SAM, MgCl2, pH 7.5, 37 °C
T2 construct: gene TVD_00875; His-tagged, pET-28a(+), E. coli BL21(DE3), Ni Sepharose; calculated 32 kDa
T2 sequence (A0A0G3G560 1-272): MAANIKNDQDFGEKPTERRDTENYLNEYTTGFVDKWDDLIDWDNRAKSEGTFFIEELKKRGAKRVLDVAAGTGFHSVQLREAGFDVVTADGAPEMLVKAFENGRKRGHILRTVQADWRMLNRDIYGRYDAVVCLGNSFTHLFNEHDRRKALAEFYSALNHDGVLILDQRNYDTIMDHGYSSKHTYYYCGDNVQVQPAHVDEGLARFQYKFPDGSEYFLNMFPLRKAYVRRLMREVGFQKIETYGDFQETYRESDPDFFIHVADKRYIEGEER

Question: `CN(C)CC(=O)O` [dimethylglycine] was tested. Which “methyltransferase assay, HPLC of product” value ([1]; 50 mM dimethylglycine) did it give?
Answer: The value was “exhibited activities on both sarcosine and dimethylglycine, showing a higher specific activity toward dimethylglycine”.

Question: With `NCC(=O)O` [glycine] as the compound, how does the “methyltransferase assay, HPLC of product” value [2] read?
Answer: Its value is “The purified TVD_RS00875 converted glycine to sarcosine with a relatively high specific activity”.

Question: `CNCC(=O)O` [sarcosine] was tested. Which “methyltransferase assay, HPLC of product” value ([1]; 60 mM sarcosine) did it give?
Answer: Its value is “TvSDMT, exhibited activities on both sarcosine and dimethylglycine”.
